Source: ChEMBL document CHEMBL1909046, “DrugMatrix in vitro pharmacology data”

Key:
Melanocortin receptor 5 = Melanocortin receptor 5 (Homo sapiens, UniProt P33032); type: cell membranes, HEK293, Membrane; note: in other assays of this panel Not Active means under 50% inhibition at 10 µM
[1] = biological target: Voltage-gated inwardly rectifying potassium channel KCNH2 (Homo sapiens, UniProt Q12809); conditions: hek293; note: in other assays of this panel Not Active means under 50% inhibition at 10 µM
Voltage-gated inwardly rectifying potassium channel KCNH2, sequence (Q12809 whole entry): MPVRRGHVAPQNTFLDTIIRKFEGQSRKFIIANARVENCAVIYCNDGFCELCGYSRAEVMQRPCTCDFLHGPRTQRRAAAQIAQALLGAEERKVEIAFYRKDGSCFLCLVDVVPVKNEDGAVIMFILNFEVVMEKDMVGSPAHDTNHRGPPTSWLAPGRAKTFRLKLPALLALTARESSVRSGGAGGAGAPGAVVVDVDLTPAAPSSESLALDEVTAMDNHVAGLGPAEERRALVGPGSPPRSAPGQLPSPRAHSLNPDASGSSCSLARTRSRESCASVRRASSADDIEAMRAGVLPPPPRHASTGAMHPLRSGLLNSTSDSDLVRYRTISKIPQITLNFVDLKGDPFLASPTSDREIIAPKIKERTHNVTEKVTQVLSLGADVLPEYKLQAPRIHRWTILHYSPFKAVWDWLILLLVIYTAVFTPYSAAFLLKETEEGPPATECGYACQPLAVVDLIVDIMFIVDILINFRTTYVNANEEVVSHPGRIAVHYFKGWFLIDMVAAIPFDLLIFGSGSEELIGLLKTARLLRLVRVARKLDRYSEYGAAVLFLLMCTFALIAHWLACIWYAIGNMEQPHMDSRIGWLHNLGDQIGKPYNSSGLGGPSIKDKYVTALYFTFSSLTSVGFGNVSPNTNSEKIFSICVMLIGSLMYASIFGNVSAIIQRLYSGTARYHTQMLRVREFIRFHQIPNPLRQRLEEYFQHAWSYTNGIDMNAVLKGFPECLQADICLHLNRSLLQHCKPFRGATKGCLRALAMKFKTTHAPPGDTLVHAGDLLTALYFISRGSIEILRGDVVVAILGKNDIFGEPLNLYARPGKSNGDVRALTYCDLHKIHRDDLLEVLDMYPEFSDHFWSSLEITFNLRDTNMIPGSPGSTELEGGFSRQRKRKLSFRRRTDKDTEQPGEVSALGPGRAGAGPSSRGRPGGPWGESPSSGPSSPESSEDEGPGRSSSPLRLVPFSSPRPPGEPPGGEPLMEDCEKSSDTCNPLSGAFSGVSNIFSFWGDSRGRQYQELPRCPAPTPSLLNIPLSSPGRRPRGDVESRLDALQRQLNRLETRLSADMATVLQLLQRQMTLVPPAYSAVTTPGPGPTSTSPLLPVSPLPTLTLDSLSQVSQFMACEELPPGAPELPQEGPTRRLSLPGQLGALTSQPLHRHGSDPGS

[2] = biological target: Prostaglandin G/H synthase 1 (Homo sapiens, UniProt P23219); assay: biochemical; type: tissue-based, Platelet;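 note: inhibition of COX-1 enzyme activity, with arachidonic acid supplied as substrate; in other assays of this panel Not Active means under 50% inhibition at 10 µM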
Prostaglandin G/H synthase 1, sequence (P23219 whole entry): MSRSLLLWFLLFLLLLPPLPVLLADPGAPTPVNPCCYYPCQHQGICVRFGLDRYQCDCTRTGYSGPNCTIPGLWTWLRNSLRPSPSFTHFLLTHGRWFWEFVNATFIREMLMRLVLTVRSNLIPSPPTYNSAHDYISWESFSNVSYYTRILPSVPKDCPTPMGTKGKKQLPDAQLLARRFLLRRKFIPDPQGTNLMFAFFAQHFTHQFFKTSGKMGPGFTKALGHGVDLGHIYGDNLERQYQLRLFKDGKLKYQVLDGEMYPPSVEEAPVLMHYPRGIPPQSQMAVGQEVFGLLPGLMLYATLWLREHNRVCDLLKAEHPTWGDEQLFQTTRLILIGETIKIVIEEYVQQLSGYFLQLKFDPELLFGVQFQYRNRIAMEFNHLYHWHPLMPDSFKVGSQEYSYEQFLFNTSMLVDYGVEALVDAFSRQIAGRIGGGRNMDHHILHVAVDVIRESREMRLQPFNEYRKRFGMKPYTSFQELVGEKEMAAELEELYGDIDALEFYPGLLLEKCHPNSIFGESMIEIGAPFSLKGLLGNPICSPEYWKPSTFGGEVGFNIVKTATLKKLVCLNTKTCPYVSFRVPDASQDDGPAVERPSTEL

[3] = biological target: Matrix metalloproteinase-9 (Homo sapiens, UniProt P14780); type: cell-based;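 note: inhibition of isolated MMP-9 enzyme activity toward a synthetic peptide substrate, from the DrugMatrix protease screening panel; in other assays of this panel Not Active means under 50% inhibition at 10 µM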
Matrix metalloproteinase-9, sequence (P14780 whole entry): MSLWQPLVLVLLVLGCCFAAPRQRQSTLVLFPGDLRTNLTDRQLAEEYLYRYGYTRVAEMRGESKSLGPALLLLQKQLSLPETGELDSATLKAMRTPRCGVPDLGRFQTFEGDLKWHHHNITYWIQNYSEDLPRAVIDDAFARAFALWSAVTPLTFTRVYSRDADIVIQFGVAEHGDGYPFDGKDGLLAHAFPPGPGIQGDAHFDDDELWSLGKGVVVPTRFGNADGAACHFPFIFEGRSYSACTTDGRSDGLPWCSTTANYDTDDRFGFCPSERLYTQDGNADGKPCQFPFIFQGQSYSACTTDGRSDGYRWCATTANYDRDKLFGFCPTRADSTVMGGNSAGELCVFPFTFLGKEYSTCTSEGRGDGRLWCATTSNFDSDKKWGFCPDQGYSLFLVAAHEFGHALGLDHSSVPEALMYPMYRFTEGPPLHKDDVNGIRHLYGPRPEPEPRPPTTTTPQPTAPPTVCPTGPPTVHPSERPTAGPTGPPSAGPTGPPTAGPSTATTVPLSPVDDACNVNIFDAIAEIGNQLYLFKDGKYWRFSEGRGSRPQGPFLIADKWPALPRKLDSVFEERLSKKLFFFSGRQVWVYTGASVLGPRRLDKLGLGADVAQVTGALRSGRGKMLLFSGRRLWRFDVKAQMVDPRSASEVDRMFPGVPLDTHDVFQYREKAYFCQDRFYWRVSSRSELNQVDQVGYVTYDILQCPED

[4] = biological target: T1, Muscarinic acetylcholine receptor M2 (Homo sapiens, UniProt P08172); type: cell membranes, CHO-K1, Membrane; note: in other assays of this panel Not Active means under 50% inhibition at 10 µM
T1 sequence (P08172 whole entry): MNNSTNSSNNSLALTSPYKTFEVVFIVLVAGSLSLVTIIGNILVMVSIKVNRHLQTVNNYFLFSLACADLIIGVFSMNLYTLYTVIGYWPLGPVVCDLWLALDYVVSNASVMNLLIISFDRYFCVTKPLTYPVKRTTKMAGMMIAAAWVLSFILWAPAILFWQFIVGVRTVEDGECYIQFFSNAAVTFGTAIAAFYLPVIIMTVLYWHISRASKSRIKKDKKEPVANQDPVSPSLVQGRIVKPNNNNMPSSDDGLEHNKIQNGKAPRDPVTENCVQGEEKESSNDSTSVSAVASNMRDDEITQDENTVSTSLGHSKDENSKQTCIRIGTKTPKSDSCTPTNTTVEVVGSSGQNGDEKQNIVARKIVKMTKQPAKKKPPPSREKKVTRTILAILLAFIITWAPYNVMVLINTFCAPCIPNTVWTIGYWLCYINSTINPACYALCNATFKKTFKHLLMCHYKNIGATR

[5] = biological target: Sigma non-opioid intracellular receptor 1 (Homo sapiens, UniProt Q99720); assay: DRUGMATRIX: Sigma1 radioligand binding (ligand: [3H] Haloperidol); type: cell membranes, Jurkat, Membrane; conditions: Not Active = under 50% inhibition at 10 µM
Sigma non-opioid intracellular receptor 1, sequence (Q99720 whole entry): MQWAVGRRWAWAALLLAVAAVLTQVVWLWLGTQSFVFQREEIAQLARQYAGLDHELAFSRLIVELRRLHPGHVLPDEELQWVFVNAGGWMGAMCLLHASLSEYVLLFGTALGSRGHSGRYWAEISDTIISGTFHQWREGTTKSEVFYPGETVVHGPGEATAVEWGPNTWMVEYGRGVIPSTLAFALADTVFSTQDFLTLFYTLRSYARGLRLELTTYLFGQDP

Melanocortin receptor 5, sequence (P33032 whole entry): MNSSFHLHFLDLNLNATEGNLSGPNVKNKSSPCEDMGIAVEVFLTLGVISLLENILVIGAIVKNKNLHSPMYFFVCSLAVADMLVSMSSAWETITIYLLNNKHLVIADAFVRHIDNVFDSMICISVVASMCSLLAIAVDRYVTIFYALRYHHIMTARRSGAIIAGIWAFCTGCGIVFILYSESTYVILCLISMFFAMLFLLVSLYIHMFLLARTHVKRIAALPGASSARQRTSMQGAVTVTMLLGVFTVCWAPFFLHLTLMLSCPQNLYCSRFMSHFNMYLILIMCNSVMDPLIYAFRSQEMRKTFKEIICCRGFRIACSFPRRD

Compound | IC50 (Melanocortin receptor 5; hek293) | IC50 [1] | Ki [1] | IC50 ([2]; platelet) | IC50 [3] | IC50 ([4]; cho-k1) | IC50 ([5]; jurkat) | IC50 ([5]; read-out: IC50) [nM] | Ki ([5]; read-out: Ki) [nM] | IC50 (Melanocortin receptor 5; read-out: IC50) [nM] | Ki (Melanocortin receptor 5; read-out: Ki) [nM] | IC50 ([4]; read-out: IC50) [nM] | Ki ([4]; read-out: Ki) [nM] | IC50 ([2]; read-out: IC50) [nM] | Ki (Melanocortin receptor 5; hek293) | Ki ([2]; platelet) | Ki [3] | Ki ([4]; cho-k1) | Ki ([5]; jurkat)
CCCCC(=O)N(Cc1ccc(-c2ccccc2-c2nnn[nH]2)cc1)[C@H](C(=O)O)C(C)C | Not Active | Not Active | Not Active | Not Active | Not Active | Not Active | Not Active | – | – | – | – | – | – | – | – | – | – | – | –
O=C(O)COc1ccc(C(=O)c2cccs2)c(Cl)c1Cl | Not Active | Not Active | Not Active | Not Active | Not Active | Not Active | Not Active | – | – | – | – | – | – | – | – | – | – | – | –
CN1[C@@H]2CC[C@H]1C[C@@H](OC(c1ccccc1)c1ccccc1)C2 [BENZTROPINE] | Not Active | Not Active | Not Active | Not Active | Not Active | – | – | – | – | – | – | – | – | – | – | – | – | – | –
C[C@@](Cc1ccc(O)c(O)c1)(NN)C(=O)O.O [CARBIDOPA] | Not Active | Not Active | Not Active | Not Active | Not Active | Not Active | Not Active | – | – | – | – | – | – | – | – | – | – | – | –
CN1CCN(C2=Nc3cc(Cl)ccc3Nc3ccccc32)CC1 [CLOZAPINE] | Not Active | – | – | Not Active | Not Active | – | Not Active | – | – | – | – | – | – | – | – | – | – | – | –
CC(C)NC[C@@H](O)COc1cccc2ccccc12 [DEXPROPRANOLOL] | Not Active | Not Active | Not Active | Not Active | Not Active | Not Active | – | 3970 | 1670 | – | – | – | – | – | – | – | – | – | –
CC(C)NC[C@H](O)COc1cccc2ccccc12 [LEVOPROPRANOLOL] | Not Active | Not Active | Not Active | Not Active | Not Active | Not Active | – | 6660 | 2800 | – | – | – | – | – | – | – | – | – | –
O=C(O)CCCCC1CCSS1 (stereo not drawn) [LIPOIC ACID, ALPHA] | Not Active | Not Active | Not Active | Not Active | Not Active | Not Active | Not Active | – | – | – | – | – | – | – | – | – | – | – | –
CN(C)C(=O)C(CCN1CCC(O)(c2ccc(Cl)cc2)CC1)(c1ccccc1)c1ccccc1 [LOPERAMIDE] | Not Active | Not Active | Not Active | Not Active | Not Active | Not Active | – | 628 | 264 | – | – | – | – | – | – | – | – | – | –
Clc1ccc(COC(Cn2ccnc2)c2ccc(Cl)cc2Cl)c(Cl)c1 (stereo unspecified) [MICONAZOLE] | – | Not Active | Not Active | Not Active | Not Active | – | Not Active | – | – | 22600 | 21200 | 4340 | 1540 | – | – | – | – | – | –
Oc1ccc2c3c1O[C@H]1[C@@H](O)CC[C@@]4(O)[C@@H](C2)N(CC2CCC2)CC[C@]314 [NALBUPHINE] | Not Active | Not Active | Not Active | Not Active | Not Active | Not Active | Not Active | – | – | – | – | – | – | – | – | – | – | – | –
C[C@]12C=CC(=O)C=C1CC[C@@H]1[C@@H]2C(=O)C[C@@]2(C)[C@H]1CC[C@]2(O)C(=O)CO [PREDNISONE] | Not Active | Not Active | Not Active | Not Active | Not Active | Not Active | Not Active | – | – | – | – | – | – | – | – | – | – | – | –
OCCOCCN1CCN(C2=Nc3ccccc3Sc3ccccc32)CC1 [QUETIAPINE] | Not Active | – | – | Not Active | Not Active | – | – | 2290 | 964 | – | – | – | – | – | – | – | – | – | –
COC(=O)[C@H]1[C@H]2C[C@@H]3c4[nH]c5cc(OC)ccc5c4CCN3C[C@H]2C[C@@H](OC(=O)c2cc(OC)c(OC)c(OC)c2)[C@@H]1OC [RESERPINE] | Not Active | Not Active | Not Active | Not Active | Not Active | Not Active | Not Active | – | – | – | – | – | – | – | – | – | – | – | –
O=C(O)c1ccccc1O [SALICYLIC ACID] | Not Active | Not Active | Not Active | Not Active | Not Active | Not Active | Not Active | – | – | – | – | – | – | – | – | – | – | – | –
C[S+]([O-])c1ccc(-c2nc(-c3ccncc3)c(-c3ccc(F)cc3)[nH]2)cc1 (stereo unspecified) [SB-203580] | Not Active | – | – | Not Active | Not Active | Not Active | Not Active | – | – | – | – | – | – | – | – | – | – | – | –
CC1CCC(NC(=O)N(CCCl)N=O)CC1 (stereo unspecified) [SEMUSTINE] | Not Active | Not Active | Not Active | Not Active | Not Active | Not Active | Not Active | – | – | – | – | – | – | – | – | – | – | – | –
O=C1C[C@@H]2OCC=C3CN4CC[C@]56c7ccccc7N1[C@H]5[C@H]2[C@H]3C[C@H]46 [STRYCHNINE] | Not Active | Not Active | Not Active | Not Active | Not Active | Not Active | Not Active | – | – | – | – | – | – | – | – | – | – | – | –
C[N+](C)(C)CCOC(=O)CCC(=O)OCC[N+](C)(C)C.[Cl-].[Cl-] [SUCCINYLCHOLINE CHLORIDE] | Not Active | Not Active | Not Active | Not Active | Not Active | Not Active | Not Active | – | – | – | – | – | – | – | – | – | – | – | –
Nc1ccc(S(=O)(=O)NC(=O)c2ccccc2)cc1 [SULFABENZAMIDE] | Not Active | Not Active | Not Active | Not Active | Not Active | Not Active | Not Active | – | – | – | – | – | – | – | – | – | – | – | –
CCCCCCCCNC(C)C(O)c1ccc(SC(C)C)cc1 (stereo unspecified) [SULOCTIDIL] | Not Active | Not Active | Not Active | Not Active | Not Active | Not Active | – | 117 | 49.3 | – | – | – | – | – | – | – | – | – | –
O=c1[nH]c(=O)n(C2CCCO2)cc1F (stereo unspecified) [TEGAFUR] | Not Active | Not Active | Not Active | Not Active | Not Active | Not Active | Not Active | – | – | – | – | – | – | – | – | – | – | – | –
CC(=N)S [THIOACETAMIDE] | Not Active | Not Active | Not Active | Not Active | Not Active | Not Active | Not Active | – | – | – | – | – | – | – | – | – | – | – | –
Cc1ccc(C(=O)c2ccc(CC(=O)O)n2C)cc1 [TOLMETIN] | Not Active | Not Active | Not Active | – | Not Active | Not Active | Not Active | – | – | – | – | – | – | 41 | – | – | – | – | –
CC(=O)OCC(COC(C)=O)OC(C)=O [TRIACETIN] | Not Active | Not Active | Not Active | Not Active | Not Active | Not Active | Not Active | – | – | – | – | – | – | – | – | – | – | – | –
CN1CCN(CCCN2c3ccccc3Sc3ccc(C(F)(F)F)cc32)CC1 [TRIFLUOPERAZINE] | Not Active | – | – | Not Active | Not Active | Not Active | Not Active | – | – | – | – | – | – | – | – | – | – | – | –
TRANSPLATIN | Not Active | Not Active | Not Active | Not Active | Not Active | Not Active | Not Active | – | – | – | – | – | – | – | Not Active | Not Active | Not Active | Not Active | Not Active
ZIRCONIUM(IV) CHLORIDE | Not Active | Not Active | Not Active | Not Active | Not Active | Not Active | Not Active | – | – | – | – | – | – | – | Not Active | Not Active | Not Active | Not Active | Not Active
